Here are results for one compound from paper PMC4822341 (Cell Discovery, 2015).

The target in data set [1] is T1, GR (Homo sapiens, UniProt P04150).
T1 construct: expressed in transfected cells; host or cells: AD293
T1 sequence (P04150 1-777): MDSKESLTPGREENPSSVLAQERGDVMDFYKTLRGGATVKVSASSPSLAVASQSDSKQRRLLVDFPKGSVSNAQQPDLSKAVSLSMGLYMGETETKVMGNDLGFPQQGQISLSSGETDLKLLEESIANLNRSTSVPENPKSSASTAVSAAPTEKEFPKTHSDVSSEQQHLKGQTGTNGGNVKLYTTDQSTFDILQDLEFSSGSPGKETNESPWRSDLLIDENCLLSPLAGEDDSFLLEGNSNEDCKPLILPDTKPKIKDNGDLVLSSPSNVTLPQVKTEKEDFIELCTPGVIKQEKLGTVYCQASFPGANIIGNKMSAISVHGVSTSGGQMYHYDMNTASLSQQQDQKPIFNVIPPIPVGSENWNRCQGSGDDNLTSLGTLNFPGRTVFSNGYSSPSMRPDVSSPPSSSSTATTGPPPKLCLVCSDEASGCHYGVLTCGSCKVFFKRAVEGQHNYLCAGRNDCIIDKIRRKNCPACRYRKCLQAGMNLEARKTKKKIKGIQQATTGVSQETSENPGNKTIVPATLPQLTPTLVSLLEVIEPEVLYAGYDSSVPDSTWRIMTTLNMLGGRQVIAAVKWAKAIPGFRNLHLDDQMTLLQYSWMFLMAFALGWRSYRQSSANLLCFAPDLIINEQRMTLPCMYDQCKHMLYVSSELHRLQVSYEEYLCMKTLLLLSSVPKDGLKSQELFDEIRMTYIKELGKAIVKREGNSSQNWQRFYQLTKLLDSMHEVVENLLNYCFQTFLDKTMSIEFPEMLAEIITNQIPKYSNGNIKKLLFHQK
Nature of the data set: AP-1-Luc repression reporter assay in AD293 cells. In kind it is cell-based. To be noted: AP-1 reporter, PMA 0.6 ng ml^-1. On the procedure: (§1) Similar to previous reports, for induction 100 ng pHHLuc (MMTV-Luc) plasmid, 0.1 ng pRShGR together with 5 ng phRGtkRenilla were transfected by X-tremeGENE 9 (Roche) into AD293 cells per well in 24-well plate. For transrepression, 10 ng AP-1-Luc or 10ng pNF-κB-luc, 100 ng pRShGR and 5 ng phRGtkRenilla were transfected into AD293 cells per well. We used the same transfection protocol for the MR and PR assays, except of the use of 0.1 ng MR or PR plasmid to substitute GR. One day after transfection, for induction, cells were directly treated by steroids for 16 h; for repression, cells were treated with either PMA at 0.6 ng ml^–1 (for AP-1 reporter) or TNFα at 2 ng ml^–1 (for NF-κB reporter), together with various steroids. Cells were collected by addition of 1× Passive Lysis Buffer (Promega, Madison, WI, USA), and luciferase activity was assayed by the Dual-Glo Luciferase system (Promega). Data were plotted as firefly luciferase activity normalized to Renilla luciferase activity in Relative Luciferase Units.
For orientation: Reporter assays use an easily measured gene product as a stand-in for the process of interest.

Data set [2] deals with IL-6 release from A549 cells. Nature of the data set: Cytokine inhibition assay, IL-6 release from A549 cells. Format: cell-based. To be noted: Homo sapiens, TNFα 2 ng ml^-1, read-out: IC50 (suppression of IL-6 release). The protocol:
A549 cells into 24-well plates were split at 40 000 cells/well. After 1 day growth, cells were treated with various steroids 1 h before overnight induction of inflammation by 2 ng ml^–1 TNFα according to literature. Sixteen hours after treatment, cell culture supernatants were subjected to anti-IL-6 Elisa (R&D Quantikine Elisa Human IL-6 Kit) according to the manual.

Data set [3] has as its target T1, GR. Nature of the data set: MMTV-Luc induction reporter assay in AD293 cells. In kind it is cell-based. To be noted: 16 h. On the procedure: as §1
Data set [4] has as its target T1, GR. Nature of the data set: In vitro H3-Dex competition GR ligand-binding assay. To be noted: H3-DEX 15 nM, GR cytosol. The text has this: The in vitro GR binding assay is similar to the one described previously. […] Data were plotted as a standard competition curve by GraphPad Prism 5.
Data set [5] is described as follows: Spleen size and weight (spleen atrophy). To be noted: 2 weeks. Format: in vivo, DBA/1 mice. The protocol: Figure 5 Examination of side effects of VSGC12 and FF at the effective dose. (a) Body weight of DBA/1 mice treated with the indicated daily dose of steroids for 2 weeks. Mice body weight was measured at day 0, 7 and 14. (b) Insulin-tolerance test of mice treated with the indicated daily doses of steroids for 7 days. Glucose level was measured at day 7 at various time points before and after insulin injection. Data were plotted as percent of the glucose level of time 0. (c) Plasma insulin levels of mice treated with the indicated daily doses of steroid for 7 days. (d) Spleen size and weight for mice treated with the indicated daily doses of steroid for 2 weeks. (e) Cortical bone thickness of femurs of mice treated with the indicated daily doses of steroid for 2 weeks. (f) Bone stiffness of femurs of mice treated with the indicated daily doses of steroid for 2 weeks. Mouse strain: DBA/1. Each treatment n=5, error bars indicate s.e.m., *P<0.05; **P<0.01; ***P<0.001.

Broadly, the IC50 is the concentration that inhibits the measured activity by half. A word on the EC50: it is the concentration at which the effect is half-maximal. Read a low EC50 as higher potency in that assay.

As to `CON(C)C(=O)C1(OC(=O)c2ccco2)C(C)CC2C3CC(F)C4=Cc5c(cnn5-c5ccccc5)CC4(C)C3(F)C(O)CC21C` (stereo not drawn) [VSGC12], the IC50 was 0.02 nM in data set [1], 0.05 nM in data set [2] and 6.1 nM in data set [4]. For the same compound, the response in data set [3] was half-maximal at 0.51 nM (EC50). For the same compound, the results for the “atrophy of the spleen” value in data set [5] (0.0625 mg kg^-1 daily) and in data set [5] (0.25 mg kg^-1 daily) were “only a mild change in spleen size” and “less severe atrophy”, respectively.
